Source: paper PMC3817140, “The Role of the Methyltransferase Domain of Bifunctional Restriction Enzyme RM.BpuSI in Cleavage Activity” (PLoS ONE, 2013)

Molecular target: T1, RM.BpuSI (Bacillus pumilus, UniProt G1K3S1)
T1 construct: full-length (REase, helical connector, MTase domain, TRD); recombinant in E. coli ER3081, no tag told; treated with substrate DNA to remove SAM
T1 sequence (G1K3S1 1-878): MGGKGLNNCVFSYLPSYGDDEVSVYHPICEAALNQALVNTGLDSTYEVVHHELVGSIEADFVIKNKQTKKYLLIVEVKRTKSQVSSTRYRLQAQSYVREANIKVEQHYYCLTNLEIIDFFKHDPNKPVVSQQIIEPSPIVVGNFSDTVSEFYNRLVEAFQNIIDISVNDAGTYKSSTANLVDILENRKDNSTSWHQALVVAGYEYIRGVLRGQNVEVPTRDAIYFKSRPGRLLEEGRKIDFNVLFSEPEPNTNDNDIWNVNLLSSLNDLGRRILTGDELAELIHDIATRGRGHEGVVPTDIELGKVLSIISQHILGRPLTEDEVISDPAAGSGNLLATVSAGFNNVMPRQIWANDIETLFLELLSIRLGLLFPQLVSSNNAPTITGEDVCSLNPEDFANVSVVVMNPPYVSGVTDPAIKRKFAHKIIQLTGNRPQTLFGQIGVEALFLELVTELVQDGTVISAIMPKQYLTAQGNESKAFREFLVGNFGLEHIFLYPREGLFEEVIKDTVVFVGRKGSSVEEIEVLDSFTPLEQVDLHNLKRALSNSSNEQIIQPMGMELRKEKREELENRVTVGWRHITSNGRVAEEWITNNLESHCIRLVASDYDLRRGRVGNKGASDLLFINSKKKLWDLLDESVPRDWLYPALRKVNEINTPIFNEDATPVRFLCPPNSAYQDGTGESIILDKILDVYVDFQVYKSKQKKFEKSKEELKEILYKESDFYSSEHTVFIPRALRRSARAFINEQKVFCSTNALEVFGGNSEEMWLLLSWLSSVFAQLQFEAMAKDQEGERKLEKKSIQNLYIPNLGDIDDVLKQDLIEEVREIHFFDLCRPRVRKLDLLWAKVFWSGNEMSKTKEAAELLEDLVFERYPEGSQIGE
Test: ANS fluorescence titration
Assay type: binding

| Structure (SMILES) | Kd [µM] |
| --- | --- |
| C[S+](CC[C@H](N)C(=O)O)C[C@H]1O[C@@H](n2cnc3c(N)ncnc32)[C@H](O)[C@@H]1O (some centres unmarked) [SAM] | 76.4 ± 18.2 |
| Nc1ncnc2c1ncn2[C@@H]1O[C@H](C[C@@H](N)CC[C@H](N)C(=O)O)[C@@H](O)[C@H]1O [sinefungin] | 71.1 ± 14.2 |
